Results reported in patent US4180669A, “2-(N-phenethyl-4-piperidino)-5-pentyl resorcinol” (Abbott Laboratories, priority 1978, dated 1979).
Counter-ions that a name gives are not always drawn. Like-named read-outs stand apart in the source and are kept apart here.

What was measured:
[1] = test system: pentagastrin stimulated fistula dog; assay: Antisecretory activity in the pentagastrin stimulated fistula dog; format: in vivo, female beagle dogs; conditions: pentagastrin 10 μg/kg s.c., 2 hours
Description: In addition to the test described in Example XXXVI, some of the present compounds were tested in dogs.
In this test, female beagle dogs weighing 5.5-7.5 kg. were surgically provided with gastric fistulas at the ventral wall of the stomach near the greater curvature and just proximal to the antrum. The animals were allowed to recover for three to four weeks before handling and training were begun, and experiments were started six to eight weeks after surgery. The individually housed dogs were fasted for 20-24 hours before use. Water was allowed ad lib. Treatment selection was determined by a randomized schedule which included control groups given vehicle (0.5% Methocel® solution) only. During the test period each dog was secured in a standing position with one collar around the neck and another around the lower abdomen. Before drug administration, the cannula plug of the gastric fistula was removed and the pH of the gastric juice was checked. Animals with acidic gastric juice (pH 4.0 or less) were replaced with alternate dogs. Then the drug was administered intragastrically […] through a special gastric cannula instillation plug, 30 minutes prior to subcutaneous administration of a gastric stimulant (pentagastrin, 10 μg/kg).
For each dog, collection of gastric juice was begun immediately after administration of the gastric stimulant and continued for two hours. The volumes of collected gastric juices were measured. The acid concentration and pepsin activity were determined for all samples by automated procedures. For the dog data, as recorded in Table 2, below, group means for volume (ml), acid concentration (acidity, mEq/l), pepsin concentration (mg/ml), acid output (mEq/2 hr), and pepsin output (mg/2 hr) were compared with the respective control means using Student's t-test. The results were also expressed as percent inhibition of the respective individual mean control values.
Group means for volume, acid and pepsin concentrations, acid and pepsin outputs were compared for statistically significant differences from control means by Student's t-test.

[2] = test system: pylorous ligated rats; assay: Antisecretory activity in the pylorous ligated rat model; format: in vivo, male Sprague-Dawley rats; conditions: Rattus norvegicus, 4 h; for inhibition in vivo at 6.3 mg/kg: oral dose 6.3 mg/kg; for inhibition in vivo at 12.5 mg/kg: oral dose 12.5 mg/kg; for inhibition in vivo at 25 mg/kg: oral dose 25 mg/kg; for inhibition in vivo at 50 mg/kg: oral dose 50 mg/kg; for inhibition in vivo at 100 mg/kg: oral dose 100 mg/kg
Description: To determine the antisecretory activity of the present compounds, the compounds were tested for such activity in pylorous ligated rats. In this test, male Sprague-Dawley rats weighing 170-190 g. were fasted for 24 hours. Water was allowed ad libitum. All groups were comprised of six rats. […] Water was withheld after drug administration. Ligation of the pyrloric sphincter was performed under ether anesthesia, and four hours after ligation the animals were sacrificed with CO2. The stomach was dissected out and the contents were expelled into a graduated centrifuge tube. The samples were centrifuged and the volume, less debris, was measured. Sample aliquots were titrated with 0.05 N NaOH to determine acid concentration. Pepsin activity was determined on an auto analyzer using hemoglobin as the substrate by the method of Anson. Group means for volume, acid and pepsin concentrations, and pepsin outputs were compared for statistically significant differences from control means by Student's t-test.

[3] = negative sign means stimulated, read-out: Percent inhibition of pepsin
[4] = read-out: Percent inhibition of acid output
[5] = read-out: Percent inhibition of acidity
[6] = read-out: Percent inhibition of pepsin output
[7] = read-out: Percent inhibition of volume
[8] = negative sign means stimulated, read-out: Percent inhibition of pepsin output

Compound	inhibition in vivo at 12.5 mg/kg [2, 4] [%]	inhibition in vivo at 12.5 mg/kg [2, 5] [%]	inhibition in vivo at 12.5 mg/kg [2, 7] [%]	inhibition in vivo at 25 mg/kg [2, 4] [%]	inhibition in vivo at 25 mg/kg [2, 5] [%]	inhibition in vivo at 25 mg/kg [2, 7] [%]	inhibition in vivo at 50 mg/kg [2, 3] [%]	inhibition in vivo at 50 mg/kg [2, 8] [%]	inhibition in vivo at 50 mg/kg [2, 4] [%]	inhibition in vivo at 50 mg/kg [2, 5] [%]	inhibition in vivo at 50 mg/kg [2, 7] [%]	inhibition in vivo at 100 mg/kg [2, 4] [%]	inhibition in vivo at 100 mg/kg [2, 5] [%]	inhibition in vivo at 100 mg/kg [2, 7] [%]	% Inhibition of acid output ([1]; dose 10 mg/kg) [%]	% Inhibition of acidity ([1]; dose 10 mg/kg) [%]	% Inhibition of pepsin ([1]; dose 10 mg/kg) [%]	% Inhibition of pepsin output ([1]; dose 10 mg/kg) [%]	% Inhibition of volume ([1]; dose 10 mg/kg) [%]	further results
CC(C)c1cc(O)c(C2=CCN(C)CC2)c(O)c1.Cl [Example VI, 2-(N-Methyl-1,2,3,6-tetrahydro-4-pyridyl)-5-isopropyl resorcinol hydrochloride]	59.4	21.6	49.8	80.9	49.9	66.1	-38.6	54.7	84.4	51.7	67.3	87.7	62.1	67.5	–	–	–	–	–	% Inhibition of acid output ([1]; dose 20 mg/kg): 26.6%; % Inhibition of acidity ([1]; dose 20 mg/kg): 36.6%; % Inhibition of pepsin ([1]; dose 20 mg/kg): 62.7%; % Inhibition of pepsin output ([1]; dose 20 mg/kg): 57.1%; % Inhibition of volume ([1]; dose 20 mg/kg): -17.6%; inhibition in vivo at 6.3 mg/kg [2, 3]: -13.6%; inhibition in vivo at 6.3 mg/kg [2, 4]: 23.4%; inhibition in vivo at 6.3 mg/kg [2, 5]: 7%; inhibition in vivo at 6.3 mg/kg [2, 6]: 7%; inhibition in vivo at 6.3 mg/kg [2, 7]: 18.9%; inhibition in vivo at 12.5 mg/kg [2, 3]: -25.3%; inhibition in vivo at 12.5 mg/kg [2, 6]: 41.2%; inhibition in vivo at 25 mg/kg [2, 3]: -22.3%; inhibition in vivo at 25 mg/kg [2, 6]: 60.2%; inhibition in vivo at 100 mg/kg [2, 3]: -48.8%; inhibition in vivo at 100 mg/kg [2, 6]: 53.3%
CCCCCC(C)C(C)c1cc(O)c(C2=CCN(Cc3ccccc3)CC2)c(O)c1.Cl (centres unmarked) [Example XIV, 2-(N-Benzyl-1,2,3,6-tetrahydro-4-pyridyl)-5-(1,2-dimethylheptyl) resorcinol hydrochloride]	-17.3	-0.5	-5.9	12.5	9.2	4.9	12.7	52.4	57.6	24.7	48.9	79.7	31.6	72.1	-10.4	1.2	-10.0	-23.1	-12.3	–
CCCCCC(C)C(C)c1cc(O)c(C2CCNCC2)c(O)c1 (centres unmarked) [Example XVI, 2-(4-Piperidino)-5-(1,2-dimethylheptyl) resorcinol hydrochloride]	–	–	–	–	–	–	45.1	40.3	46.6	50.7	-8.6	–	–	–	20.3	20.9	39.7	39.1	-0.2	–
